Experimental data reported in the NIST ThermoML archive (doi:10.1021/je060271a).
Numbers after ± are expanded uncertainties.

Settings: 343.15 K, Liquid, Vibrating tube method

CCCCCCCC(=O)OCC(COC(=O)CCCCCCC)(COC(=O)CCCCCCC)COC(=O)CCCCCCC [pentaerythritol tetraoctanoate]
Settings	mass density [kg/m3]
14038 kPa	936.2 ± 1.2
14078 kPa	936.3 ± 1.2
14099 kPa	936.2 ± 1.2
14121 kPa	936.1 ± 1.2
14146 kPa	936.2 ± 1.2
14168 kPa	936.1 ± 1.2
14194 kPa	936.3 ± 1.2
14216 kPa	936.3 ± 1.2
14238 kPa	936.2 ± 1.2
14260 kPa	936.2 ± 1.2
14286 kPa	936.3 ± 1.2
14308 kPa	936.4 ± 1.2
14330 kPa	936.4 ± 1.2
14357 kPa	936.2 ± 1.2
14379 kPa	936.4 ± 1.2
14401 kPa	936.3 ± 1.2
14428 kPa	936.3 ± 1.2
14450 kPa	936.4 ± 1.2
14473 kPa	936.4 ± 1.2
14500 kPa	936.4 ± 1.2
14523 kPa	936.4 ± 1.2
14546 kPa	936.5 ± 1.2
14570 kPa	936.6 ± 1.2
14594 kPa	936.4 ± 1.2
14621 kPa	936.6 ± 1.2
14644 kPa	936.5 ± 1.2
14667 kPa	936.4 ± 1.2
14694 kPa	936.5 ± 1.2
14718 kPa	936.6 ± 1.2
14741 kPa	936.7 ± 1.2
14765 kPa	936.5 ± 1.2
14793 kPa	936.6 ± 1.2
14817 kPa	936.6 ± 1.2
14845 kPa	936.6 ± 1.2
14870 kPa	936.7 ± 1.2
14894 kPa	936.6 ± 1.2
14918 kPa	936.8 ± 1.2
14947 kPa	936.7 ± 1.2
14971 kPa	936.8 ± 1.2
14995 kPa	936.7 ± 1.2
15024 kPa	936.7 ± 1.2
15049 kPa	936.8 ± 1.2
15078 kPa	936.8 ± 1.2
15103 kPa	936.8 ± 1.2
15127 kPa	936.8 ± 1.2
15152 kPa	936.9 ± 1.2
15183 kPa	936.8 ± 1.2
15208 kPa	936.8 ± 1.2
15233 kPa	936.8 ± 1.2
15263 kPa	936.9 ± 1.2
15288 kPa	937 ± 1.2
15314 kPa	937 ± 1.2
15344 kPa	937 ± 1.2
15370 kPa	937 ± 1.2
15396 kPa	937.1 ± 1.2
15426 kPa	937.1 ± 1.2
15452 kPa	937 ± 1.2
15478 kPa	937 ± 1.2
15508 kPa	937 ± 1.2
15536 kPa	937 ± 1.2
15563 kPa	937.1 ± 1.2
15589 kPa	937.3 ± 1.2
15616 kPa	937.2 ± 1.2
15647 kPa	937.1 ± 1.2
15673 kPa	937.2 ± 1.2
15705 kPa	937.3 ± 1.2
15732 kPa	937.3 ± 1.2
15759 kPa	937.3 ± 1.2
15791 kPa	937.2 ± 1.2
15818 kPa	937.3 ± 1.2
15846 kPa	937.3 ± 1.2
15879 kPa	937.4 ± 1.2
15908 kPa	937.4 ± 1.2
15936 kPa	937.2 ± 1.2
15964 kPa	937.3 ± 1.2
15992 kPa	937.3 ± 1.2
16026 kPa	937.4 ± 1.2
16054 kPa	937.5 ± 1.2
16083 kPa	937.4 ± 1.2
16116 kPa	937.5 ± 1.2
16144 kPa	937.5 ± 1.2
16173 kPa	937.5 ± 1.2
16207 kPa	937.5 ± 1.2
16236 kPa	937.5 ± 1.2
16265 kPa	937.7 ± 1.2
16300 kPa	937.7 ± 1.2
16329 kPa	937.6 ± 1.2
16358 kPa	937.7 ± 1.2
16387 kPa	937.6 ± 1.2
16423 kPa	937.7 ± 1.2
16453 kPa	937.7 ± 1.2
16483 kPa	937.8 ± 1.2
16518 kPa	937.7 ± 1.2
16548 kPa	937.6 ± 1.2
16578 kPa	937.8 ± 1.2
16609 kPa	937.7 ± 1.2
16645 kPa	937.8 ± 1.2
16676 kPa	937.9 ± 1.2
16707 kPa	937.9 ± 1.2
16738 kPa	937.8 ± 1.2
16775 kPa	937.8 ± 1.2
16806 kPa	937.9 ± 1.2
16843 kPa	938.1 ± 1.2
16904 kPa	938 ± 1.2
16942 kPa	938 ± 1.2
16974 kPa	938.1 ± 1.2
17005 kPa	938 ± 1.2
17037 kPa	938.1 ± 1.2
17075 kPa	938.1 ± 1.2
17107 kPa	938.1 ± 1.2
17146 kPa	938.2 ± 1.2
17354 kPa	938.2 ± 1.2
17387 kPa	938.2 ± 1.2
17421 kPa	938.3 ± 1.2
17460 kPa	938.4 ± 1.2
17494 kPa	938.4 ± 1.2
17528 kPa	938.4 ± 1.2
17569 kPa	938.5 ± 1.2
17604 kPa	938.5 ± 1.2
17638 kPa	938.4 ± 1.2
17678 kPa	938.5 ± 1.2
17713 kPa	938.4 ± 1.2
17748 kPa	938.5 ± 1.2
17790 kPa	938.6 ± 1.2
17825 kPa	938.6 ± 1.2
17861 kPa	938.6 ± 1.2
17904 kPa	938.7 ± 1.2
17940 kPa	938.7 ± 1.2
17977 kPa	938.8 ± 1.2
18022 kPa	938.8 ± 1.2
18054 kPa	938.8 ± 1.2
18084 kPa	938.8 ± 1.2
18119 kPa	938.8 ± 1.2
18149 kPa	938.8 ± 1.2
18179 kPa	938.8 ± 1.2
18210 kPa	938.9 ± 1.2
18247 kPa	938.9 ± 1.2
18279 kPa	938.9 ± 1.2
18312 kPa	938.9 ± 1.2
18349 kPa	939 ± 1.2
18372 kPa	938.9 ± 1.2
18393 kPa	939.1 ± 1.2
18411 kPa	939.1 ± 1.2
18430 kPa	939 ± 1.2
18448 kPa	939 ± 1.2
18465 kPa	939.1 ± 1.2
18482 kPa	939.1 ± 1.2
18503 kPa	939.2 ± 1.2
18521 kPa	939.1 ± 1.2
18542 kPa	939.2 ± 1.2
18560 kPa	939.1 ± 1.2
18577 kPa	939.1 ± 1.2
18598 kPa	939.1 ± 1.2
18616 kPa	939.1 ± 1.2
18635 kPa	939.2 ± 1.2
18657 kPa	939.2 ± 1.2
18673 kPa	939.2 ± 1.2
18695 kPa	939.2 ± 1.2
18712 kPa	939.1 ± 1.2
18730 kPa	939.3 ± 1.2
18752 kPa	939.4 ± 1.2
18771 kPa	939.4 ± 1.2
18789 kPa	939.2 ± 1.2
18812 kPa	939.2 ± 1.2
18830 kPa	939.2 ± 1.2
18848 kPa	939.3 ± 1.2
18870 kPa	939.4 ± 1.2
18888 kPa	939.3 ± 1.2
18907 kPa	939.4 ± 1.2
18926 kPa	939.4 ± 1.2
18948 kPa	939.4 ± 1.2
18967 kPa	939.4 ± 1.2
18986 kPa	939.4 ± 1.2
19008 kPa	939.4 ± 1.2
19027 kPa	939.4 ± 1.2
19049 kPa	939.6 ± 1.2
19068 kPa	939.5 ± 1.2
19087 kPa	939.4 ± 1.2
19106 kPa	939.5 ± 1.2
19129 kPa	939.5 ± 1.2
19148 kPa	939.4 ± 1.2
19167 kPa	939.5 ± 1.2
19190 kPa	939.6 ± 1.2
19210 kPa	939.6 ± 1.2
19225 kPa	939.6 ± 1.2
19248 kPa	939.6 ± 1.2
19271 kPa	939.5 ± 1.2
19291 kPa	939.6 ± 1.2
19310 kPa	939.7 ± 1.2
19334 kPa	939.6 ± 1.2
19353 kPa	939.6 ± 1.2
19373 kPa	939.6 ± 1.2
19396 kPa	939.7 ± 1.2
19416 kPa	939.7 ± 1.2
19436 kPa	939.7 ± 1.2
19456 kPa	939.8 ± 1.2
19480 kPa	939.6 ± 1.2
19499 kPa	939.7 ± 1.2
19519 kPa	939.6 ± 1.2
19543 kPa	939.7 ± 1.2
19563 kPa	939.8 ± 1.2
19587 kPa	939.8 ± 1.2
19608 kPa	939.8 ± 1.2
19627 kPa	939.7 ± 1.2
19647 kPa	939.8 ± 1.2
19671 kPa	939.9 ± 1.2
19691 kPa	939.7 ± 1.2
19712 kPa	939.8 ± 1.2
19736 kPa	939.8 ± 1.2
19756 kPa	939.8 ± 1.2
19780 kPa	939.9 ± 1.2
19801 kPa	940.1 ± 1.2
19821 kPa	940.1 ± 1.2
19841 kPa	939.9 ± 1.2
19866 kPa	940 ± 1.2
19887 kPa	940 ± 1.2
19907 kPa	940 ± 1.2
19932 kPa	940 ± 1.2
19952 kPa	940.1 ± 1.2
19977 kPa	940 ± 1.2
19999 kPa	940 ± 1.2
20019 kPa	940 ± 1.2
20040 kPa	940.1 ± 1.2
20065 kPa	940 ± 1.2
20108 kPa	940.1 ± 1.2
20155 kPa	940.1 ± 1.2
20180 kPa	940.2 ± 1.2
20201 kPa	940.2 ± 1.2
20223 kPa	940.1 ± 1.2
20245 kPa	940.2 ± 1.2
20271 kPa	940.1 ± 1.2
20295 kPa	940.1 ± 1.2
20316 kPa	940.3 ± 1.2
20338 kPa	940.2 ± 1.2
20364 kPa	940.2 ± 1.2
20386 kPa	940.3 ± 1.2
20408 kPa	940.3 ± 1.2
20434 kPa	940.3 ± 1.2
20527 kPa	940.5 ± 1.2
20550 kPa	940.3 ± 1.2
20577 kPa	940.3 ± 1.2
20596 kPa	940.4 ± 1.2
20622 kPa	940.5 ± 1.2
20645 kPa	940.4 ± 1.2
20667 kPa	940.5 ± 1.2
20690 kPa	940.5 ± 1.2
20708 kPa	940.5 ± 1.2
20731 kPa	940.6 ± 1.2
20753 kPa	940.5 ± 1.2
20790 kPa	940.5 ± 1.2
20813 kPa	940.5 ± 1.2
20836 kPa	940.5 ± 1.2
20864 kPa	940.6 ± 1.2
20887 kPa	940.6 ± 1.2
20910 kPa	940.5 ± 1.2
20938 kPa	940.7 ± 1.2
20961 kPa	940.6 ± 1.2
20984 kPa	940.8 ± 1.2
21008 kPa	940.5 ± 1.2
21036 kPa	940.7 ± 1.2
21059 kPa	940.8 ± 1.2
21087 kPa	940.8 ± 1.2
21110 kPa	940.8 ± 1.2
21134 kPa	940.7 ± 1.2
21162 kPa	940.8 ± 1.2
21185 kPa	940.8 ± 1.2
21215 kPa	940.8 ± 1.2
21239 kPa	940.8 ± 1.2
21262 kPa	940.9 ± 1.2
21286 kPa	940.9 ± 1.2
21315 kPa	940.9 ± 1.2
21339 kPa	940.9 ± 1.2
21363 kPa	940.9 ± 1.2
21392 kPa	941 ± 1.2
21416 kPa	941 ± 1.2
21440 kPa	941 ± 1.2
21469 kPa	940.9 ± 1.2
21494 kPa	941.1 ± 1.2
21518 kPa	941.1 ± 1.2
21548 kPa	941 ± 1.2
21573 kPa	941.1 ± 1.2
21597 kPa	941.1 ± 1.2
21622 kPa	941.1 ± 1.2
21652 kPa	941.1 ± 1.2
21677 kPa	941.1 ± 1.2
21702 kPa	941.2 ± 1.2
21732 kPa	941.3 ± 1.2
21757 kPa	941.3 ± 1.2
21782 kPa	941.2 ± 1.2
21812 kPa	941.2 ± 1.2
21837 kPa	941.1 ± 1.2
21863 kPa	941.2 ± 1.2
21890 kPa	941.1 ± 1.2
21920 kPa	941.2 ± 1.2
21946 kPa	941.3 ± 1.2
21977 kPa	941.3 ± 1.2
